pIC50, pKi: −log10 of the molar value.

Experiment [1] concerns the target N-succinyl-diaminopimelate aminotransferase (Escherichia coli). The experiment is described as follows: Compound was tested for binding affinity against N-Succinyl Diaminopimelic Acid Aminotransferase from Escherichia coli.
The target is the same in experiment [2]. The description is as above. The source holds these as a separate data set.
Experiment [3] shares this target. Put plainly: Compound was tested for 50% inhibition of N-Succinyl Diaminopimelic Acid Aminotransferase (DAP-AT) from Escherichia coli.

With `NNC(CCC[C@H](NC(=O)CCC(=O)O)C(=O)O)C(=O)O` (stereo partly drawn) [(S)-2-(3-Carboxy-propionylamino)-6-hydrazino-heptanedioic acid], the pKi in experiment [1] is 7.66. The pIC50 in experiment [2] is 6.30.

In the case of `CC(=O)N[C@@H](CC(=O)O)C(=O)N[C@@H](CCCC(NN)C(=O)O)C(=O)O` (stereo partly drawn) [(S)-2-((S)-2-Acetylamino-3-carboxy-propionylamino)-6-hydrazino-heptanedioic acid], the pIC50 in experiment [3] is 6.10. Further, the pKi in experiment [1] is 6.77. In experiment [2], `CC(=O)N[C@@H](Cc1ccccc1)C(=O)N[C@@H](CCCC(=O)C(=O)O)C(=O)O` [dilithium 2-[1-methylcarboxamido-2-phenyl-(1S)-ethylcarboxamido]-6-oxo-(2S)-heptanedioate] gave a pIC50 below 1.30.

Usually pKi stands for the Ki on a negative log10 scale, so that one unit is a factor of ten. Higher therefore signals a small Ki. Usually pIC50 stands for the IC50 on a negative log10 scale, so that one unit is a factor of ten. A high value points to a low IC50.

The values are drawn from BindingDB's records for doi:10.1016/s0960-894x(98)00149-8 (University of Bristol, 1999).
